{
  "source": "patent US7741311B2",
  "about": "“Composition and method for treating occlusive vascular diseases, nerve regeneration, and wound healing” (priority 2005, dated 2010)",
  "key": {"[1]": {"test_system": "human dermal micro-vascular endothelial cells (HDMEC)", "test": "three-dimensional in vitro sprout angiogenesis assay (endothelial cells on gelatin-coated beads in fibrin gel)", "type": "cell-based", "details": "Ch 2 (10 μg); sub-threshold levels of VEGF and b-FGF; P<0.01", "description": "The effect of low molecular weight sulfated saccharides (molecular weight<5000 Dalton) on micro-vascular endothelial cell sprouting (in Vitro 3D Sprout Angiogenesis) is depicted with respect to culture of HDMEC on micro-carrier beads in FIG. 19. 80% confluent HDMEC (Passage 5-10) are mixed with gelatin-coated Cytodex-3 beads with a ratio of 40 cells per bead. If using 24-well plate for the assay, 150-200 beads per well are used. Cells and beads are suspended with 5 ml EBM+15% normal human serum, mixed gently every one hour for first four hours. Then the mixture culture is left in CO2 incubator overnight. The next morning, 10 ml of fresh EBM+15% HS and culture are added for another three hours. Before experiments, the culture of EC-beads is checked. 500 ul of PBS in a well of 24-well plate is added. 100 ul of the EC-bead culture solution is added to the PBS. The number of beads are observed and counted. The concentration of EC-beads is calculated. […]\nCulture of HDMEC on micro-carrier beads: 80% confluent HDMEC (Passage 5-10) were mixed with gelatin-coated Cytodex-3 beads with a ratio of 40 cells per bead. […] The number of beads is counted and the concentration of EC-beads is calculated. […]\nGrowth factors: VEGF (30 ng/ml)+FGF2 (25 ng/ml) CH2: Sulfated Hexasaccharide at 10 ug/ml. […] A quantitative three-dimensional in vitro assay method was utilized to screen compounds for angiogenic activity. […]"}, "[2]": {"test_system": "chick chorioallantoic membrane (CAM)", "test": "neovascularization in the chick chorioallantoic membrane (CAM) model", "type": "in vivo", "details": "n = 8", "description": "In vivo neovascularization was examined by the method previously described by Auerbach et al. (Auerbach et al., J. Dev. Biol., 41:391-394 (1974), which is hereby incorporated by reference in its entirety). Ten-day old embryos were purchased from Spafas, Inc. (Preston, Conn.) and were incubated at 37° C. with 55% relative humidity. In the dark with the help of a candling lamp, a small hole was punctured in the shell concealing the air sac with a hypodermic needle. A second hole was punctured in the shell on the broadside of the egg directly over an avascular portion of the embryonic membrane, as observed during candling. […]\n(§1) CAM tissue directly beneath FGF2-saturated filter disk was resected from embryos treated 48 hours prior with test compound or control. […] Digital images of CAM sections adjacent to filters were collected using a 3-CCD color video camera system (Toshiba America, New York, N.Y.) and analyzed using Image-Pro Plus software (Media Cybernetics, Silver Spring, Md.).\nas §1, with “48 h” for “48 hours”, “with” for “with test”, “analyzed with the” for “analyzed using”"}},
  "data": [
    {"smiles": "COc1cccc(-c2cc(=O)c3ccccc3o2)c1N", "note": "[PD9805]", "values": [
      {"measurement": "blockade of angiogenesis promoted by Ch 2", "setting": "[1]", "value": "blocked"},
      {"measurement": "Mean % Inhibition ± SEM", "setting": "[2]; inhibition of Ch 2 (10 μg) pro-angiogenesis by inhibitor 4.8 μg, P < 0.01", "value": "71 ± 6", "unit": "%"},
      {"measurement": "Mean Branch Points ± SEM", "setting": "[2]; inhibitor 4.8 μg added to PBS + Ch 2 (10 μg)", "value": "95 ± 8"}
    ]}
  ]
}
